The target of the experiment is human Cat S (Homo sapiens (Human), UniProt P25774). In words: Cathepsin enzyme inhibition assay (fluorogenic peptide substrate Z-Val-Val-Arg-AMC). The experiment is classed as biochemical. The conditions noted are these: enzyme 1 nM, substrate 20 μM, pH 6.5. As for the experimental part: Cathepsin Enzyme Inhibition Assay
Sequence of human Cat S (P25774 115-331): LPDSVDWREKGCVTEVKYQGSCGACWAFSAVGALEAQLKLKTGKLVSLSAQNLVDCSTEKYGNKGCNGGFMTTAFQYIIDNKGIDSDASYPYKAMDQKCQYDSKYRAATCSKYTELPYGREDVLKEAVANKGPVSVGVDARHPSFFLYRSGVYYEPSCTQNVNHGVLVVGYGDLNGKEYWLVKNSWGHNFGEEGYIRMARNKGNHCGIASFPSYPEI
Enzyme activity is measured by observing the increase in fluorescence intensity caused by cleavage of a peptide substrate containing a fluorophore whose emission is quenched in the intact peptide.
Assay buffer: 100 mM potassium phosphate pH 6.5, EDTA-Na 5 mM, Triton X-100 0.001%, DTT 5 mM.
Enzymes (all at 1 nM): human and mouse Cathepsin S, Cat K, Cat B, Cat L.
Substrate (20 μM): Z-Val-Val-Arg-AMC, except for Cat K which uses Z-Leu-Arg-AMC (both from Bachem).
AMC=7-Amino-4-Methyl-Coumarin.
Excitation 360 nm, Emission 465 nm.
Enzyme is added to the substance dilutions in 96-well microtitre plates and the reaction is started with substrate. […] IC50 are calculated by standard methods.
Inhibition of human Cat S, mouse Cat S, human Cat K, human Cat B, human Cat L and mouse Cat L have been measured separately.
As to `N#CC1(NC(=O)[C@@H]2C[C@@H](S(=O)(=O)c3ccc(-c4cc[n+]([O-])c(Cl)c4)cc3C(F)(F)F)CN2C(=O)C2(C(F)(F)F)CC2)CC1` [Example 1, (2S,4R)-4-[4-(2-Chloro-1-oxy-pyridin-4-yl)-2-trifluoromethyl-benzenesulfonyl]-1-(1-trifluoromethyl-cyclopropanecarbonyl)-pyrrolidine-2-carboxylic acid (1-cyano-cyclopropyl)-amide], the concentration for half-maximal inhibition (IC50) was 0.968 nM.

For the compound `Cc1cc(-c2ccc(S(=O)(=O)[C@@H]3C[C@@H](C(=O)NC4(C#N)CC4)N(C(=O)C4(C(F)(F)F)CC4)C3)c(C(F)(F)F)c2)cc[n+]1[O-]` [Example 2, (2S,4R)-4-[4-(2-Methyl-1-oxy-pyridin-4-yl)-2-trifluoromethyl-benzenesulfonyl]-1-(1-trifluoromethyl-cyclopropanecarbonyl)-pyrrolidine-2-carboxylic acid (1-cyano-cyclopropyl)-amide], the midpoint of inhibition, the IC50, lay at 0.77 nM.

With `Cn1nc(C(F)(F)F)cc1-c1ccc(S(=O)(=O)[C@@H]2C[C@@H](C(=O)NC3(C#N)CC3)N(C(=O)C3(C(F)(F)F)CC3)C2)c(C(F)(F)F)c1` [Example 3, (2S,4R)-4-[4-(2-Methyl-5-trifluoromethyl-2Hpyrazol-3-yl)-2-trifluoromethyl-benzenesulfonyl]-1-(1-trifluoromethyl-cyclopropanecarbonyl)-pyrrolidine-2-carboxylic acid (1-cyano-cyclopropyl)-amide], the IC50 worked out at 1.02 nM.

Regarding `N#CC1(NC(=O)[C@@H]2C[C@@H](S(=O)(=O)c3ccc(-c4ccccc4OC(F)(F)F)cc3C(F)(F)F)CN2C(=O)C2(C(F)(F)F)CC2)CC1` [Example 4, (2S,4R)-4-(2′-Trifluoromethoxy-3-trifluoromethyl-biphenyl-4-sulfonyl)-1-(1-trifluoromethyl-cyclopropanecarbonyl)-pyrrolidine-2-carboxylic acid (1-cyano-cyclopropyl)-amide], half-maximal inhibition (IC50) required 0.978 nM.

For the compound `CCOc1ccccc1-c1ccc(S(=O)(=O)[C@@H]2C[C@@H](C(=O)NC3(C#N)CC3)N(C(=O)C3(C(F)(F)F)CC3)C2)c(C(F)(F)F)c1` [Example 5, (2S,4R)-4-(2′-Ethoxy-3-trifluoromethyl-biphenyl-4-sulfonyl)-1-(1-trifluoromethyl-cyclopropanecarbonyl)-pyrrolidine-2-carboxylic acid (1-cyano-cyclopropyl)-amide], half-maximal inhibition (IC50) was put at 0.836 nM.

Take `N#CC1(NC(=O)[C@@H]2C[C@@H](S(=O)(=O)c3ccc(-c4ccccc4OC4CC4)cc3C(F)(F)F)CN2C(=O)C2(C(F)(F)F)CC2)CC1` [Example 6, (2S,4R)-4-(2′-Cyclopropoxy-3-trifluoromethyl-biphenyl-4-sulfonyl)-1-(1-trifluoromethyl-cyclopropanecarbonyl)-pyrrolidine-2-carboxylic acid (1-cyano-cyclopropyl)-amide]: it took 1.06 nM to reach half-maximal inhibition (IC50).

For `N#CC1(NC(=O)[C@@H]2C[C@@H](S(=O)(=O)c3ccc(OC4CCC4)cc3C(F)(F)F)CN2C(=O)C2(C(F)(F)F)CC2)CC1` [Example 7, (2S,4R)-4-(4-Cyclobutoxy-2-trifluoromethyl-benzenesulfonyl)-1-(1-trifluoromethyl-cyclopropanecarbonyl)-pyrrolidine-2-carboxylic acid (1-cyano-cyclopropyl)-amide], half-maximal inhibition (IC50) required 0.91 nM.

In turn, `Cc1nnn(-c2ccc(S(=O)(=O)[C@@H]3C[C@@H](C(=O)NC4(C#N)CC4)N(C(=O)C4(C(F)(F)F)CC4)C3)c(Cl)c2)n1` [Example 8, (2S,4R)-4-(2-chloro-4-(5-methyl-2H-tetrazol-2-yl)phenylsulfonyl)-N-(1-cyanocyclopropyl)-1-(1-(trifluoromethyl)cyclopropanecarbonyl)pyrrolidine-2-carboxamide] came in with an IC50 of 0.533 nM.

Turning to `Cc1nnnn1-c1ccc(S(=O)(=O)[C@@H]2C[C@@H](C(=O)NC3(C#N)CC3)N(C(=O)C3(C(F)(F)F)CC3)C2)c(Cl)c1` [Example 9, (2S,4R)-4-(2-chloro-4-(5-methyl-1H-tetrazol-1-yl)phenylsulfonyl)-N-(1-cyanocyclopropyl)-1-(1-(trifluoromethyl)cyclopropanecarbonyl)pyrrolidine-2-carboxamide], inhibition was half-maximal at 0.683 nM (IC50).

For the compound `N#CC1(NC(=O)[C@@H]2C[C@@H](S(=O)(=O)c3ccc(-n4cncn4)cc3Cl)CN2C(=O)C2(C(F)(F)F)CC2)CC1` [Example 10, (2S,4R)-4-(2-chloro-4-(1H-1,2,4-triazol-1-yl)phenylsulfonyl)-N-(1-cyanocyclopropyl)-1-(1-(trifluoromethyl)cyclopropanecarbonyl)pyrrolidine-2-carboxamide], half-maximal inhibition (IC50) required 0.686 nM.

For the compound `N#CC1(NC(=O)[C@@H]2C[C@@H](S(=O)(=O)c3ccc(-n4cncn4)cc3-n3cncn3)CN2C(=O)C2(C(F)(F)F)CC2)CC1` [Example 11, (2S,4R)—N-(1-cyanocyclopropyl)-4-(2,4-di(1H-1,2,4-triazol-1-yl)phenylsulfonyl)-1-(1-(trifluoromethyl)cyclopropanecarbonyl)pyrrolidine-2-carboxamide], the IC50 worked out at 12.6 nM.

Take `N#CC1(NC(=O)[C@@H]2C[C@@H](S(=O)(=O)c3ccc(-n4nccn4)cc3Cl)CN2C(=O)C2(C(F)(F)F)CC2)CC1` [Example 12, (2S,4R)-4-(2-chloro-4-(2H-1,2,3-triazol-2-yl)phenylsulfonyl)-N-(1-cyanocyclopropyl)-1-(1-(trifluoromethyl)cyclopropanecarbonyl)pyrrolidine-2-carboxamide]: the IC50 is 0.56 nM.

As for `N#CC1(NC(=O)[C@@H]2C[C@@H](S(=O)(=O)c3ccc(-n4ccnn4)cc3Cl)CN2C(=O)C2(C(F)(F)F)CC2)CC1` [Example 13, (2S,4R)-4-(2-chloro-4-(1H-1,2,3-triazol-1-yl)phenylsulfonyl)-N-(1-cyanocyclopropyl)-1-(1-(trifluoromethyl)cyclopropanecarbonyl)pyrrolidine-2-carboxamide], the midpoint of inhibition, the IC50, lay at 0.568 nM.

With `Cc1ncn(-c2ccc(S(=O)(=O)[C@@H]3C[C@@H](C(=O)NC4(C#N)CC4)N(C(=O)C4(C(F)(F)F)CC4)C3)c(Cl)c2)n1` [Example 14, (2S,4R)-4-(2-chloro-4-(3-methyl-1H-1,2,4-triazol-1-yl)phenylsulfonyl)-N-(1-cyanocyclopropyl)-1-(1-(trifluoromethyl)cyclopropanecarbonyl)pyrrolidine-2-carboxamide], half-maximal inhibition (IC50) required 0.529 nM.

In turn, `Cc1nc(C)n(-c2ccc(S(=O)(=O)[C@@H]3C[C@@H](C(=O)NC4(C#N)CC4)N(C(=O)C4(C(F)(F)F)CC4)C3)c(Cl)c2)n1` [Example 15, (2S,4R)-4-(2-chloro-4-(3,5-dimethyl-1H-1,2,4-triazol-1-yl)phenylsulfonyl)-N-(1-cyanocyclopropyl)-1-(1-(trifluoromethyl)cyclopropanecarbonyl)pyrrolidine-2-carboxamide] gave an IC50 of 0.61 nM.

The compound `N#CC1(NC(=O)[C@@H]2C[C@@H](S(=O)(=O)c3ccc(-n4cnc(Cl)n4)cc3Cl)CN2C(=O)C2(C(F)(F)F)CC2)CC1` [Example 16, (2S,4R)-4-(2-chloro-4-(3-chloro-1H-1,2,4-triazol-1-yl)phenylsulfonyl)-N-(1-cyanocyclopropyl)-1-(1-(trifluoromethyl)cyclopropanecarbonyl)pyrrolidine-2-carboxamide] displayed an IC50 of 0.563 nM.

In turn, `N#CC1(NC(=O)[C@@H]2C[C@@H](S(=O)(=O)c3ccc(-n4ccc(C(F)(F)F)n4)cc3Cl)CN2C(=O)C2(C(F)(F)F)CC2)CC1` [Example 17, (2S,4R)-4-(2-chloro-4-(3-(trifluoromethyl)-1H-pyrazol-1-yl)phenylsulfonyl)-N-(1-cyanocyclopropyl)-1-(1-(trifluoromethyl)cyclopropanecarbonyl)pyrrolidine-2-carboxamide] came in with an IC50 of 0.704 nM.

`Cc1cc(C(F)(F)F)nn1-c1ccc(S(=O)(=O)[C@@H]2C[C@@H](C(=O)NC3(C#N)CC3)N(C(=O)C3(C(F)(F)F)CC3)C2)c(Cl)c1` [Example 18, (2S,4R)-4-(2-chloro-4-(5-methyl-3-(trifluoromethyl)-1H-pyrazol-1-yl)phenylsulfonyl)-N-(1-cyanocyclopropyl)-1-(1-(trifluoromethyl)cyclopropanecarbonyl)pyrrolidine-2-carboxamide] came in with an IC50 of 0.98 nM.

`Cc1cc(-n2ccc(C(F)(F)F)n2)ccc1S(=O)(=O)[C@@H]1C[C@@H](C(=O)NC2(C#N)CC2)N(C(=O)C2(C(F)(F)F)CC2)C1` [Example 19, (2S,4R)—N-(1-cyanocyclopropyl)-4-(2-methyl-4-(3-(trifluoromethyl)-1H-pyrazol-1-yl)phenylsulfonyl)-1-(1-(trifluoromethyl)cyclopropanecarbonyl)pyrrolidine-2-carboxamide] displayed an IC50 of 1.43 nM.

The compound `N#CC1(NC(=O)[C@@H]2C[C@@H](S(=O)(=O)c3ccc(-c4ccccc4OC(F)(F)F)cc3)CN2C(=O)C2(C(F)(F)F)CC2)CC1` [Example 20, (2S,4R)—N-(1-cyanocyclopropyl)-4-(2′-(trifluoromethoxy)biphenyl-4-ylsulfonyl)-1-(1-(trifluoromethyl)cyclopropanecarbonyl)pyrrolidine-2-carboxamide] displayed an IC50 of 5.72 nM.

As for `N#CC1(NC(=O)[C@@H]2C[C@@H](S(=O)(=O)c3ccc(OC4CCC4)cc3Cl)CN2C(=O)C2(C(F)(F)F)CC2)CC1` [Example 21, (2S,4R)-4-(2-chloro-4-cyclobutoxyphenylsulfonyl)-N-(1-cyanocyclopropyl)-1-(1-(trifluoromethyl)cyclopropanecarbonyl)pyrrolidine-2-carboxamide], half-maximal inhibition (IC50) required 1.07 nM.

The record behind these values is patent US10689339B2, “Pyrrolidine derivatives” (Hoffmann-La Roche Inc., priority 2016, dated 2020).
